Laboratory results from patent US20130079345A1, “[…] ACTIVE DISUBSTITUTED TRIAZINE DERIVATIVES” (BAYER INTELLECTUAL PROPERTY GMBH, priority 2010, published 2013).
Structures can show the parent of a compound that is named as a salt.

Columns and labels:
CDK6/CyclinD3 = molecular target: T1, CDK6/CyclinD3 (Homo sapiens, UniProt Q00534); experiment: Lance Ultra KinaSelect Assay, CDK6; format: biochemical; settings: read-out: Inhibition (IC50) CDK6
T1 construct: purchased Carna
Method: This protocol describes how the Lance Ultra KinaSelect Assay was performed to determine half maximal inhibitory concentration (IC50) of compounds of general formula (I) and CDK/Cyclin complexes. The principle behind this enzymatic assay is based upon the phosphorylation of the ULight-Peptide Substrat. It is detected by using a specific EU-labeled anti-phospho peptide antibody. The binding of the Eu-labeled anti-phospho peptide antibody to the phosphorylated U Light labeled peptide gives rise to a FRET-signal. Binding of an inhibitor to the kinase prevents phosphorylation of the ULight-MBP Substrat, resulting in a loss of FRET.
The compounds of general formula (I) summarized in Table 5 were diluted from a 10 mM DMSO stock solution 1:10 in a total volume of 15 μL DMSO. This compound predilution was then serial diluted 1:3 over 8 steps in DMSO and briefly spun down. Each compound solution was now diluted 1:20 in Enzymatic Buffer (HEPES: 50 mM, pH: 7.5; MgCl2: 10 mM; EGTA: 1 mM; DTT: 2 mM; Tween-20: 0.01%), mixed thoroughly and spun down. For every sample, 2 μL of the diluted compound were mixed with 6 μL CDK/Cyclin/Substrat solution and […] in a well of a small volume 384 well plate (Corning Incorporated, Corning, N.Y., USA; order no. 3673). […] For positive controls, in each well 2 μL of DMSO solution (1% final DMSO assay concentration) was mixed with 6 μL CDK/Cyclin/Substrat (appropriate final concentration see Table 3) and 2 μL Tracer ATP solution (appropriate final concentration see Table 3). Positive and negative controls were calculated from at least 8 different sample wells. The 384 well plates were mixed in a Teleshaker plate mixer (Beckman Coulter, Brea, Calif., USA) at 2000 rpm for 40 sec, and incubated for 1 h at room temperature. Before reading, 10 μL detection buffer (Lance Detection Buffer 1×; EDTA: […]; Eu-Anti-P-MBP: see Table 3) was added. The FRET signal was measured at 340 nm excitation, 665 nm and 615 nm emission (for the kinase tracer and LanthaScreen Eu-AB, respectively) with an Envision spectrophotometer (Perkin Elmer, Waltham, Mass., USA) with 50 μs delay and 300 μs integration time. IC50 values were determined from the sigmoidal dose response curves with the software Quattro Workflow (Quattro GmbH, Munich, Germany).

[1] = test system: RNA Polymerase II Ser2 phosphorylation (cellular CDK9 activity) in HCT-116 cells; experiment: RNA-Polymerase II Ser2 cellular phosphorylation assay; format: cell-based; settings: Homo sapiens, normalized with tubulin
Method: HCT-116 cells (DSMZ, Braunschweig, Germany) were maintained in Mc Coy's cell culture medium+glutamine (PAN Biotech GmbH, Aidenbach, Germany) supplemented with 10% fetal calf serum (PAA Laboratories GmbH, Pasching, Austria) and grown at 37° C., 5% CO2. For the cellular phosphorylation assay, cells were seeded with 2×10^5 cells/well/1 ml in 24-well plates (Greiner Bio—One, Frickenhausen, Germany; catalog #662160). The compounds of general formula (I) summarized in Table 6 were diluted from a 10 mM DMSO stock solution 1:10 in a total volume of 15 μL DMSO. After overnight incubation at 37° C./5% CO2, 1.5 μL of a compound diluted in DMSO was added to each sample well. Wells with cells and 0.15% DMSO in culture medium were used as positive controls, wells without cells and 0.15% DMSO in culture medium were used as negative controls. The cells were incubated with the compounds for 72 h at 37° C./5% CO2. Before lysis, cells were washed with phosphate buffered saline. Phosphorylation of RNA Polymerase II Ser2 and tubulin levels for normalization were analyzed afterwards with the Multi-Array technology (Meso Scale Discovery, Gaithersburg, Md., USA), a combination of antibody coupled electrochemiluminescence detection and patterned arrays. Manufacturer's instructions were followed and all solutions were purchased from Meso Scale Discovery. In brief, cells were lysed by 30 min incubation in CLB1 lysis buffer (Zeptosens, Witterswil, Switzerland; 60 μL per well), and supernatants were cleared by centrifugation. For analysis of RNA Polymerase II Ser2-phosphorylation, lysates were diluted 1:50 with Meso Scale Lysis Buffer supplemented with phosphatase- and protease-inhibitors, and 25 µL of each sample was pipetted in a well of a MSD Multi-Array 96-Well Plate Sector® Imager High Bind Plate (Meso Scale Discovery; catalog #L15XB-3/L11XB-3), and incubated for 2 h at room temperature. […] Meso Scale Tris Wash Buffer supplemented with 3% w/v Meso Scale Blocker A were added per well, then plates were sealed and incubated 1 h with vigorous shaking. Plates were washed with 1× Tris Wash Buffer (10× Meso Scale Wash Buffer diluted 1:10 in destilled water), 25 μL of antibody solution was added (CTD7 3E10 antibody from Helmholtz Zentrum Munich, Germany, diluted 1:100 in Meso Scale Tris Wash Buffer supplemented with 1% w/v Meso Scale Blocker A), and plates were washed three times in 1× Tris Wash Buffer. 25 μL of MSD® SULFO-TAG™ Goat-Anti-Rat-Antibody (Meso Scale Discovery, catalog #R^32AH-1, diluted 1:125 in Tris Wash Buffer with 1% (w/v) blocker A) were added per well, plates were sealed and incubated with vigorous shaking for 1 h at room temperature. Finally, plates were washed three times with Tris Wash Buffer, 150 μl 2× Read Buffer (Meso Scale Discovery) were added per well and plates were analyzed immediately in a Sector Imager from Meso Scale Discovery. For determination of tubulin protein levels, samples were analyzed with the protocol for RNA Polymerase II Ser2-phosphorylation, with an anti-tubulin antibody (rabbit; BIODESIGN International, catalog #T59840R, diluted 1:100) and a MSD® SULFO-TAG™ […] (Meso Scale Discovery, catalog #R^32AH-1, diluted 1:125). RNA Polymerase II Ser2 phosphorylation was normalized with tubulin protein levels, and EC50 values were calculated with the software XLFit (IDBS, Guildford, UK) from 2-fold dilution series comprising 6 concentrations in duplicates.

T1 sequence (Q00534 whole entry): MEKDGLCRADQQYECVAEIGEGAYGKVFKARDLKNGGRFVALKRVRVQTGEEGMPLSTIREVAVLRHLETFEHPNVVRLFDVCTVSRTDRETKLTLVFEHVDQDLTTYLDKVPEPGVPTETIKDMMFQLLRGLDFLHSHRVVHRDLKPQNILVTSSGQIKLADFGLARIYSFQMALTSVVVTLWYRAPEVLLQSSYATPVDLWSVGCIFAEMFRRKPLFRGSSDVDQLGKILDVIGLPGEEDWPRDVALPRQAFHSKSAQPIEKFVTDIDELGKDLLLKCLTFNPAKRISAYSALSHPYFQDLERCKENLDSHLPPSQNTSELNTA
T1 sequence (P30281 whole entry partner): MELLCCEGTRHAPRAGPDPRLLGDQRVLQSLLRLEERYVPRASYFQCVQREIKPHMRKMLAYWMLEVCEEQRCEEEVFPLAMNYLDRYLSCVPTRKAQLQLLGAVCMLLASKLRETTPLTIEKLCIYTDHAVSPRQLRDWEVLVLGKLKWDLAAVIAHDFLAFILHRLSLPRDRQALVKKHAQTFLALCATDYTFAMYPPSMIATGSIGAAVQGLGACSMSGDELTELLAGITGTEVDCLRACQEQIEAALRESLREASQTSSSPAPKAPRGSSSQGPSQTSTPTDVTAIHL

| SMILES | IC50 (CDK6/CyclinD3) | IC50 [1] |
| --- | --- | --- |
| CCOc1ccccc1-c1ncnc(Nc2cccc(CS(N)(=O)=O)c2)n1 [Compound B12, 3-[(4-(2-Ethoxyphenyl)-1,3,5-triazin-2-yl)amino]benzenemethanesulfonamide] | > 10 µM | 17.5 µM |
| COc1cc(F)ccc1-c1ncnc(Nc2cccc(CCS(N)(=O)=O)c2)n1 [Compound D2, 2-[3-((4-(4-Fluoro-2-methoxyphenyl)-1,3,5-triazin-2-yl)amino)phenyl]ethanesulfonamide] | > 10 µM | 10.8 µM |
| NS(=O)(=O)Cc1cccc(Nc2ncnc(-c3ccccc3OCc3ccccc3)n2)c1 [B13′, 3-[(4-(2-Benzyloxyphenyl)-1,3,5-triazin-2-yl)amino]benzenemethanesulfonamide trifluoroacetic acid salt] | > 10 µM | – |
| NS(=O)(=O)Cc1cccc(Nc2ncnc(-c3ccccc3Oc3ccccc3)n2)c1 [Compound B14, 1-(3-{[4-(2-phenoxyphenyl)-1,3,5-triazin-2-yl]amino}phenyl)methanesulfonamide] | – | 14.5 µM |
| COc1cnccc1-c1ncnc(Nc2cccc(CS(N)(=O)=O)c2)n1 [Compound B19, 3-[(4-(3-Methoxypyridin-4-yl)-1,3,5-triazin-2-yl)amino]benzenemethanesulfonamide] | – | 15.5 µM |
| COc1ccccc1-c1ncnc(Nc2cccc(CCS(N)(=O)=O)c2)n1 [Compound D1, 2-[3-((4-(2-Methoxyphenyl)-1,3,5-triazin-2-yl)amino)phenyl]ethanesulfonamide] | > 10 µM | – |
| COc1cccc(F)c1-c1ncnc(Nc2cccc(CS(N)(=O)=O)c2)n1 [Compound B4, 3-[(4-(6-Fluoro-2-methoxyphenyl)-1,3,5-triazin-2-yl)amino]benzenemethanesulfonamide] | > 10 µM | 49.8 µM |
| COc1ccc(F)cc1-c1ncnc(Nc2cccc(CS(N)(=O)=O)c2)n1 [Compound B3, 3-[(4-(5-Fluoro-2-methoxyphenyl)-1,3,5-triazin-2-yl)amino]benzenemethanesulfonamide] | – | 9.62 µM |
| COc1cc(F)ccc1-c1ncnc(Nc2cccc(CS(N)(=O)=O)c2)n1 [B2″, 1-(3-{[4-(4-fluoro-2-methoxyphenyl)-1,3,5-triazin-2-yl]amino}phenyl)methanesulfonamide trifluoroacetic acid salt] | > 10 µM | 3.64 µM |
| COc1ccccc1-c1ncnc(Nc2cccc(CS(N)(=O)=O)c2)n1 [B1′, 3-[(4-(2-Methoxyphenyl)-1,3,5-triazin-2-yl)amino]benzenemethanesulfonamide trifluoroacetic acid salt] | > 10 µM | 10.9 µM |
| COc1ccccc1-c1ncnc(Nc2cccc(NS(C)(=O)=O)c2)n1 [Compound K1, N-[3-((4-(2-Methoxyphenyl)-1,3,5-triazin-2-yl)amino)phenyl]-methanesulfonamide] | > 10 µM | – |
| COc1ccccc1-c1ncnc(Nc2cccc(S(N)(=O)=O)c2)n1 [C1′, 3-[(4-(2-Methoxyphenyl)-1,3,5-triazin-2-yl)amino]benzenesulfonamide trifluoroacetic acid salt] | > 10 µM | 2.87 µM |
| COc1cc(Cl)ccc1-c1ncnc(Nc2cccc(CS(N)(=O)=O)c2)n1 [Compound B6, 3-[(4-(4-Chloro-2-methoxyphenyl)-1,3,5-triazin-2-yl)amino]benzenemethanesulfonamide] | > 10 µM | 15.3 µM |
| CCCS(=O)(=O)Nc1cccc(Nc2ncnc(-c3ccccc3OC)n2)c1 [Compound L1, N-[3-((4-(2-Methoxyphenyl)-1,3,5-triazin-2-yl)amino)phenyl]-propanesulfonamide] | > 10 µM | > 30 µM |
| NS(=O)(=O)Cc1cccc(Nc2ncnc(-c3ccccc3OCc3ccncc3)n2)c1 [Compound B16, 3-[(4-(2-((4-Pyridinyl)methoxy)phenyl)-1,3,5-triazin-2-yl)amino]benzenemethanesulfonamide] | > 10 µM | 11.9 µM |
